{"source": "patent US11000535B2", "about": "“Anticancer composition and use thereof” (KAOHSIUNG MEDICAL UNIVERSITY, priority 2015, dated 2021)", "key": {"caspase 3/7": {"tested_on": "caspase 3/7", "experiment": "Caspase 3/7 activity assay", "type": "cell-based, human", "conditions": "Huh7 cells, 12 hours", "protocol": "Please refer to FIG. 24, which illustrates PGG induced caspase 3/7 activity in Huh7 cells.\nHuh7 cells were plated in 96-well plate and treated with solvent or PGG for 12 h. To measure caspase-3 and caspase-7 activation, the Apo-ONE® Homogeneous Caspase-3/7 assay was performed according to the Promega Technical Bulletin-Apo-ONE® Homogeneous Caspase-3/7 assay."}, "Huh7 cells": {"tested_on": "Huh7 cells", "experiment": "Apoptosis in Huh7 cells (Annexin V flow cytometry, cleaved caspase 3 immunoblot)", "type": "cell-based, human", "protocol": "Please refer to FIG. 22, which illustrates sub-G1 of cells in population. And flow cytometry analysis is done after 24 hours of PGG (0.1 mg/mL) treatment as illustrated in FIG. 22.\nPlease refer to FIG. 23, which illustrates fluorescence intensity in Annexin-V-positive cells among Huh7 cells.\nIn summary, administration of PGG to Huh7 cells can induce apoptosis.\nCells were harvested and fixed with cold 75% ethanol overnight and stained with propidium iodide (10 ug/mL) and RNase A (1 mg/mL) at 37 □ for 30 min. The cells were then analyzed by an Accuri C6 Flow cytometer (BD Biosciences, San Jose, Calif., USA). Cells were stained for Annexin V—APC Apoptosis Detection Kit according to the manufacturer's protocol (eBioscience, San Diego, Calif., USA)."}, "[1]": {"tested_on": "human glycine N-methyltransferase promoter", "experiment": "GNMT promoter-driven luciferase reporter assay in H7GPL cells", "type": "cell-based", "conditions": "H7GPL luciferase", "protocol": "Please refer to FIG. 1, which illustrates the configuration of pLV-GNMTpLuc plasmid. HEK293T cells were cotransfected with a packaging plasmid-pCMV-ΔR8.91, a VSV-G envelope expressing plasmid-pMD.G and pLV-GNMTpLuc using TurboFect™ Reagent (Fermentas, Hanover, Md.). One resultant colony was picked, amplified and denominated as H7GPL (HuH-7-GNMT promoter-Luciferase). The relative luciferase activity (RLA) was calculated as “activity of luciferase/intensity of alamarBlue fluorescence”. The fold changes in GNMT promoter induction was calculated as “RLA of drug/RLA of solvent control”. Compounds with the ability to activate human glycine N-methyltransferase promoter in H7GPL could serve as a citeria for screening drugs.\nPlease refer to FIG. 2, which illustrates the luciferase activity in a screening platform. Previously, 26 FDA approved drugs were identified that can reverse the gene expression signature of HCC. We obtained 26 drugs. H7GPL cells were seeded in 96-well plates for 18 hours and then were treated with these 26 drugs and solvent control for an extra 24 hours.\nIn the initial screening, when (individual luciferase activity−average luciferase activity of all hits)/standardized Z scores of all samples is greater than 1.5, it means the compound has the capability of enhancing the GNMT reporter activity.\nHuh7 cells were infected with this virus and selected with puromycin-containing medium. One resultant colony was picked, amplified and denominated as H7GPL (Huh7 GNMT promoter-luciferase). The cell lysate of H7GPL was used for luciferase activity measurement using the Luciferase Assay System (Promega).\nFor primary screening, H7GPL cells seeded in 96-well plates were treated for 24 h with individual drugs at a concentration of 2 mg/mL for crude extracts and 0.2 mg/mL for pure compounds and then were lysed for the luciferase activity assay using the Luciferase Assay System (Promega, Madison, Wis., USA).\nReporter activity for each well was transformed to the Z score by using data from all assay plates.\nThen, hits of primary screening were sorted by Z score ≥1.5 and used for secondary screening.\nAnd then placed in the above-described culture plate H7GPL cell replication, and after the disposal of seized goods in those 20 hours, the company added AbD serotec Reagent (Oxford, UK), further cultured for 4 hours.\nThe cytotoxicity was measured according to the manufacturer's recommendation for assessing the reporter gene.\nDrugs that induced GNMT promoter activity ≥1.5-fold were considered as hits of the secondary screen with the capability of enhancing the activity of GNMT."}}, "data": [{"smiles": "O=C(OC[C@H]1O[C@@H](OC(=O)c2cc(O)c(O)c(O)c2)[C@H](OC(=O)c2cc(O)c(O)c(O)c2)[C@@H](OC(=O)c2cc(O)c(O)c(O)c2)[C@@H]1OC(=O)c1cc(O)c(O)c(O)c1)c1cc(O)c(O)c(O)c1", "note": "[PGG, 1,2,3,4,6-penta-O-galloyl-β-D-glucopyranoside]", "values": [{"measurement": "increase in caspase 3/7 activity", "setting": "caspase 3/7", "result": "five-fold"}, {"measurement": "apoptosis (Annexin V staining)", "setting": "Huh7 cells", "result": "significantly induce apoptosis"}, {"measurement": "level of cleaved caspase 3 (immunoblot)", "setting": "Huh7 cells", "result": "increased the level of cleaved caspase 3 in a dose-dependent manner"}, {"measurement": "GNMT promoter activity (in words)", "setting": "[1]", "result": "can induce GNMT promoter activity"}]}]}
